Reference: patent US20260060991A1, “METHODS AND COMPOSITIONS FOR INHIBITING CLONAL HEMATOPOIESIS” (The Jackson Laboratory, priority 2022, published 2026)
“Also recorded” adds a separate entry of the source.

Tested on: WT recipient mice transplanted with Dnmt3a-mutant cells (Dnmt3a;Npm1-mutant)
Test: Navitoclax treatment of mice transplanted with Dnmt3a-mutant cells, followed by tamoxifen induction of the Npm1 mutation (progression from clonal hematopoiesis to myeloid malignancy)
Assay type: in vivo, mouse
Experimental: FIG. 6A-6E: Navitoclax treatment attenuates Dnmt3a-mutant peripheral blood myeloid cell overproduction. (FIG. 6A) Dnmt3a-mutant cells were transplanted into wild type recipient mice, 12 weeks post-transplant Navitoclax or vehicle control was administered, and 2 weeks later the Npm1 mutation was induced in the Dnmt3a-mutant cells. (FIG. 6B) Frequency of donor-derived mature Dnmt3a;Npm1-mutant myeloid cells in peripheral blood of Navitoclax or vehicle control treated transplant mice. (FIG. 6C) Engraftment of donor-derived mature Dnmt3a;Npm1-mutant myeloid cells in BM (FIG. 6D) β-gal expression in BMSCs, and (FIG. 6E) monocyte count in navitoclax versus vehicle treated mice.
Next, the functional importance of BMSC senescence in Dnmt3a-mutant transformation to AML was evaluated. Dnmt3a-mutant cells were transplanted into WT recipient mice, administered the senolytic Navitoclax or vehicle control, and then induced the AML driver mutation Npm1^c in vivo.
Using the senolytic Navitoclax, targeting Bcl-2/Bcl-xL, we evaluated the extent to which removing senescent cells caused by Dnmt3a-mutant haematopoiesis in vivo would delay progression from clonal hematopoiesis to myeloid malignancy. Briefly, Dnmt3a-mutant cells (cells from BM derived from CD45.2^+; Dnmt3a^R787H/+ MxCre; Npm1^frt-cA/+Flpo^ERT mice) were transplanted into recipient mice (CD45.1^+ mice) (FIG. 6A). After 12 weeks (‘Pre-senolytic’), recipient mice were either administered vehicle control or the senolytic agent, navitoclax, by oral gavage to selectively deplete senescent cells. Navitoclax was administered at a dosage of 50 mg/kg/day for 1 week, followed by 2 weeks of no treatment, followed by 1 week of treatment. Blood samples were collected from Pre-senolytic mice before administration of vehicle control or navitoclax. Following navitoclax treatment (‘Post-senolytic’), the AML driver mutation Npm1^cA/+ (‘TAM’) was induced using tamoxifen to initiate progression to myeloid malignancy. Blood samples were collected from Post-senolytic mice and TAM mice. Tamoxifen was administered for a period of 1 week. Blood samples were taken from tamoxifen treated mice (“Post-Npm1”).

## navitoclax
5 months after tamoxifen treatment (harvest), relative to vehicle treated controls, FIG. 6C
  frequency of donor (CD45.2+) cells in the BM: lower frequency
5 months after tamoxifen treatment (harvest), relative to vehicle treated controls, FIG. 6D
  BMSC senescence (measured by β-gal): maintained lower BMSC senescence
5 months after tamoxifen treatment (harvest), relative to vehicle treated controls, FIG. 6E
  monocyte ("white blood cell" or "WBC") count: reduced monocyte
Post-Npm1 sampling, navitoclax 50 mg/kg/day oral gavage, 1 week on, 2 weeks off, FIG. 6B
  frequency of myeloid cells (CD45.2+) in the peripheral blood (PB): reduced frequency
Concurrent with transformation of Dnmt3a;Npm1-mutant cells, vs vehicle control
  peripheral blood myeloid cell overproduction: reduced; also recorded: attenuates
